Target: T1, human mGlu2 receptor (Homo sapiens, UniProt Q14416)
T1 construct: expressed in transfected cells; host or cells: HEK293
Assay: FLIPR intracellular Ca2+ assay, potentiation of glutamate response in HEK293 clone expressing mGlu2 receptor, rGLAST and Galpha16
Format: cell-based
Conditions: 1 μM glutamate added ten minutes after test compound, HEK293 cells with human mGlu2, rGLAST, Galpha16, read-out: EC50 values of potentiation effect to glutamate
From the text: The compounds of the present invention can be tested e.g. by evaluating intracellular Ca^2+ concentrations in cells permanently expressing human mGlu receptor, the rat glutamate transporter rGLAST and the Galpha16 subunit of the G-protein complex under standard conditions in a fluorometric imaging plate reader (FLIPR, Molecular Devices, Union City, Calif. 94587, USA) by measuring the response of the cells to a test compound in the absence of presence of glutamate. The FLIPR assay is a common functional assay to monitor native or recombinant Galphaq-coupled receptors, and native or recombinant receptors normally linked to other G-protein signalling cascades, which are coupled to calcium through co-expression of an alpha subunit of a promiscuous or chimeric G-protein. In the assay the increase of intracellular calcium is measured through a calcium-dependent fluorescent dye (e.g. Fluo-4 AM) in the FLIPR instrument.
For the purpose of the present study, a cell line permanently expressing a human mGlu receptor, such as the mGlu2 receptor, the rat glutamate transporter rGLAST and the GalphaG16 may be generated by transfection as described in the examples. For selection of a suitable cell clone and also the subsequent measurements, the selected clone the cells will be plated on suitable multiwell plates in a suitable medium (e.g. DMEM Glutamax (GIBCO #21885-025)/10% dialyzed FCS). Cells may be selected by gentamycin treatment as described in the examples. Cells will then be loaded with a suitable Ca^2+ sensitive fluorescence dye, e.g. with 2 μM Fluo-4 AM (Molecular Probes, F14201). Cells will then be washed with a suitable buffer (e.g. HEPES) and the thus treated plates will be measured in a fluorometric imaging plate reader (e.g. FLIPR, Molecular Devices, Union City, Calif. 94587, USA).
The compounds of the present invention were tested in the above-described FLIPR assay using the selected cell clone. Increased intracellular calcium levels were quantified following addition of test compound (agonism), as well as following addition of a submaximal concentration of glutamate (potentiation).
For the determination of the effect of the test compound by itself (agonism) or by increasing the response to a submaximal concentration (e.g. 1 μM) of glutamate (potentiation), the resulting signal is determined by subtraction of the background fluorescence from the maximal fluorescent peak height of the respective response. In the FLIPR instrument the compound is given to the cell and its fluorescence response quantified by the FLIPR instrument (agonism). The concentration at which the compound exerts half its maximal effect is named the ‘effective concentration 50’ or ‘EC50’. The maximal effect induced by the test substance is normalized to the maximal effect exerted by 100 μM glutamate (set at 100%).
After addition of the test compound to the plate, a submaximal concentration of glutamate (e.g. 1 μM glutamate) will be added. A potentiator enhances the response of the receptor to glutamate. The response to glutamate in the presence of test compound is quantified. The concentration at which the test compound is able to exert half its maximal potentiation effect to glutamate is named the ‘EC50’. The maximal response to the submaximal concentration of glutamate (e.g. 1 micromolar glutamate) in the presence of test compound is normalized to the maximal effect exerted by 100 micromolar glutamate (set at 100%). Least squares curve fitting with a four-parameter equation is then applied to the resulting dose-response curve to determine the resulting EC5O values (Graph Pad Prism).
For the purpose of the present study, a cell line permanently expressing the human mGlu2 receptor, the rat glutamate transporter rGLAST and the alpha subunit of G16 was generated by transfection. […]

T1 sequence (Q14416 19-872): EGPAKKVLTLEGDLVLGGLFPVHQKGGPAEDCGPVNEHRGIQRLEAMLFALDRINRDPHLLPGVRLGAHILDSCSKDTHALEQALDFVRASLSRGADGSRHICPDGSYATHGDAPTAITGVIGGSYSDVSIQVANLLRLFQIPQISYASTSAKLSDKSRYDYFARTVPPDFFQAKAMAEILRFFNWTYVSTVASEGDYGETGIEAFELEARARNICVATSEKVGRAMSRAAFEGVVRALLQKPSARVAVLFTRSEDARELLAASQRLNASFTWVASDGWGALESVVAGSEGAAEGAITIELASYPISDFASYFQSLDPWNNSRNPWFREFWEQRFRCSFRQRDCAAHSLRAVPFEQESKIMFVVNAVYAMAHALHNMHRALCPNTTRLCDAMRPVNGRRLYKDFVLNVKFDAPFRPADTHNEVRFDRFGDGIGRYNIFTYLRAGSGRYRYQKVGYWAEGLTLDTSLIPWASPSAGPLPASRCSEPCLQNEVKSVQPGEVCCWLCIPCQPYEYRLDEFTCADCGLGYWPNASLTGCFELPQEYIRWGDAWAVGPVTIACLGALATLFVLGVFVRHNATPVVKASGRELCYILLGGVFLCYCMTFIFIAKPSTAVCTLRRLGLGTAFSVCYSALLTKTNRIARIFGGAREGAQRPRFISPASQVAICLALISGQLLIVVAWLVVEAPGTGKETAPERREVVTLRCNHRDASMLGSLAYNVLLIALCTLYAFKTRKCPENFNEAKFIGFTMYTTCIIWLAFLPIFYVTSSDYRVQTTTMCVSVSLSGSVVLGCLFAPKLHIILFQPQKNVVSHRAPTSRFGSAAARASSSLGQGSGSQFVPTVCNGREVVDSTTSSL

| EC50 [nM] | SMILES |
| --- | --- |
| < 1000 | O=C1c2ccc(OCc3c[nH]nc3-c3ccc(C(F)(F)F)cc3)cc2CN1C1CCCC1 [Example 588, 2-Cyclopentyl-5-[3-(4-trifluoromethyl-phenyl)-1H-pyrazol-4-ylmethoxy]-2,3-dihydro-isoindol-1-one] |
| < 1000 | CCCC(=O)c1ccc(NCc2c[nH]nc2-c2cccc(C(F)(F)F)c2)cc1OC [Example 434, 1-(2-Methoxy-4-{[3-(3-trifluoromethyl-phenyl)-1H-pyrazol-4-ylmethyl]-amino}-phenyl)-butan-1-one] |
| 1000 to 10000 | CCCC(=O)c1ccc(NCc2cnc(-c3cccc(OC)c3)s2)cc1 [Example 243, 1-(4-{[2-(3-Methoxy-phenyl)-thiazol-5-ylmethyl]-amino}-phenyl)-butan-1-one] |
| < 1000 | CCCN1Cc2cc(NCc3c[nH]nc3-c3cccc(F)c3)ccc2C1=O [Example 580, 5-{[3-(3-Fluorophenyl)-1H-pyrazol-4-ylmethyl]-amino}-2-propyl-2,3-dihydro-isoindol-1-one] |
| 1000 to 10000 | CCCC(=O)c1ccc(NCc2cccnc2-c2ccccc2)cc1 [Example 526, 1-{4-[(2-Phenyl-pyridin-3-ylmethyl)-amino]-phenyl}-butan-1-one] |
| 1000 to 10000 | CCC(CC)Oc1cccc(N(Cc2c[nH]nc2-c2ccc(C(F)(F)F)cc2)S(=O)(=O)CC(F)(F)F)c1 [Example 454, 2,2,2-Trifluoro-ethanesulfonic acid [3-(1-ethyl-propoxy)-phenyl]-[3-(4-trifluoromethyl-phenyl)-1H-pyrazol-4-ylmethyl]-amide] |
| 1000 to 10000 | CC(C)(C)c1n[nH]cc1CNc1ccc(OCc2ccccn2)cc1 [Example 285, (3-tert-Butyl-1H-pyrazol-4-ylmethyl)-[4-(pyridin-2-ylmethoxy)-phenyl]-amine] |
| 1000 to 10000 | CCCC(=O)c1ccc(SCc2c[nH]nc2-c2ccc(C(F)(F)F)cc2)cc1 [Example 492, 1-{4-[3-(4-Trifluoromethyl-phenyl)-1H-pyrazol-4-ylmethylsulfanyl]-phenyl}-butan-1-one] |
| 1000 to 10000 | Cc1ccc(NCc2c[nH]nc2-c2ccc(C(F)(F)F)cc2)nc1C [Example 363, (5,6-Dimethyl-pyridin-2-yl)-[3-(4-trifluoromethyl-phenyl)-1H-pyrazol-4-ylmethyl]-amine] |
| 1000 to 10000 | CCCC(=O)c1ccc(NCc2cnn(Cc3ccccc3)c2)cc1 [Example 220, 1-{4-[(1-Benzyl-1H-pyrazol-4-ylmethyl)-amino]-phenyl}-butan-1-one] |
| < 1000 | CCN1Cc2cc(OCc3c[nH]nc3-c3ccc(F)cc3)ccc2C1=O [Example 559, 2-Ethyl-5-[3-(4-fluorophenyl)-1H-pyrazol-4-ylmethoxy]-2,3-dihydro-isoindol-1-one] |
| < 1000 | CCCC(=O)c1ccc(OCc2n[nH]cc2-c2ccc(OC)cc2)cc1 [Example 520, 1-{4-[4-(4-Methoxy-phenyl)-1H-pyrazol-3-ylmethoxy]-phenyl}-butan-1-one] |
| 1000 to 10000 | CCCC(=O)c1ccc(NCc2nn(C)c3ccccc23)cc1 [Example 219, 1-{4-[(1-Methyl-1H-indazol-3-ylmethyl)-amino]-phenyl}-butan-1-one] |
| < 1000 | CCCN1Cc2cc(NCc3c[nH]nc3-c3ccc(F)cc3)ccc2C1=O [Example 579, 5-{[3-(4-Fluorophenyl)-1H-pyrazol-4-ylmethyl]-amino}-2-propyl-2,3-dihydro-isoindol-1-one] |
| 1000 to 10000 | CN(C)c1cccc(N(Cc2cccnc2)S(=O)(=O)CC(F)(F)F)c1 [Example 389, 2,2,2-Trifluoro-ethanesulfonic acid (3-dimethylamino-phenyl)-pyridin-3-ylmethyl-amide] |
| 1000 to 10000 | CC(=O)c1sccc1NCc1c[nH]nc1-c1ccc(C(F)(F)F)cc1 [Example 355, 1-(3-{[3-(4-Trifluoromethyl-phenyl)-1H-pyrazol-4-ylmethyl]-amino}-thiophen-2-yl)-ethanone] |
| < 1000 | CCCCN1Cc2cc(OCc3c[nH]nc3-c3cccc(Cl)c3)ccc2C1=O [Example 549, 2-Butyl-5-[3-(3-chloro-phenyl)-1H-pyrazol-4-ylmethoxy]-2,3-dihydro-isoindol-1-one] |
| 1000 to 10000 | CCCC(=O)c1cccc(N(C)Cc2c[nH]nc2-c2ccc(C(F)(F)F)cc2)c1 [Example 392, 1-(3-{Methyl-[3-(4-trifluoromethyl-phenyl)-1H-pyrazol-4-ylmethyl]-amino}-phenyl)-butan-1-one] |
| < 1000 | CCCC(=O)c1ccc(NCc2c[nH]nc2-c2cccs2)cc1 [Example 40, 1-(4-{[3-(Thiophen-2-yl)-1H-pyrazol-4-ylmethyl]amino}phenyl)butan-1-one] |
| < 1000 | CCCN1CCc2cc(OCc3c[nH]nc3-c3ccc(C(F)(F)F)cc3)ccc2C1=O [Example 574, 2-Propyl-6-[3-(4-trifluoromethyl-phenyl)-1H-pyrazol-4-ylmethoxy]-3,4-dihydro-2H-isoquinolin-1-one] |
| < 1000 | CCCC(=O)c1ccc(NCc2c[nH]nc2-c2ccccc2Cl)cc1 [Example 510, 1-(4-{[3-(2-Chloro-phenyl)-1H-pyrazol-4-ylmethyl]-amino}-phenyl)-butan-1-one] |
| < 1000 | CCCN1Cc2cc(NCc3c(C)noc3-c3ccccc3)ccc2C1=O [Example 590, 5-[(3-Methyl-5-phenyl-isoxazol-4-ylmethyl)-amino]-2-propyl-2,3-dihydro-isoindol-1-one] |
| < 1000 | CCCC(=O)c1ccc(NCc2c[nH]nc2-c2cc(F)cc(F)c2)cc1 [Example 213, 1-(4-{[3-(3,5-Difluorophenyl)-1H-pyrazol-4-ylmethyl]-amino}-phenyl)-butan-1-one] |
| 1000 to 10000 | CCCC(=O)c1ccc(NCc2cnn(-c3ccccc3)c2C)cc1 [Example 45, 1-{4-[(5-Methyl-1-phenyl-1H-pyrazol-4-ylmethyl)amino]phenyl}butan-1-one] |
| < 1000 | CC(C)CN1Cc2cc(OCc3c[nH]nc3-c3ccc(C(F)(F)F)cc3)ccc2C1=O [Example 587, 2-Isobutyl-5-[3-(4-trifluoromethyl-phenyl)-1H-pyrazol-4-ylmethoxy]-2,3-dihydro-isoindol-1-one] |
| 1000 to 10000 | CCCC(=O)c1ccc(NCc2c(CSc3ccccc3)nn(C)c2Cl)cc1 [Example 52, 1-(4-{[5-Chloro-1-methyl-3-(phenylthiomethyl)-1H-pyrazol-4-ylmethyl]amino}phenyl)butan-1-one] |
| < 1000 | CCCC(=O)c1ccc(NCc2cnccc2-c2ccccc2)cc1 [Example 525, 1-{4-[(4-Phenyl-pyridin-3-ylmethyl)-amino]-phenyl}-butan-1-one] |
| 1000 to 10000 | COc1cc(NCc2c[nH]nc2C(C)(C)C)cc(OC)c1 [Example 116, (3-tert-Butyl-1H-pyrazol-4-ylmethyl)-(3,5-dimethoxyphenyl)-amine] |
| 1000 to 10000 | CCCC(=O)c1cccc(NCc2n[nH]cc2-c2ccc(OC)cc2)c1 [Example 514, 1-(3-{[4-(4-Methoxy-phenyl)-1H-pyrazol-3-ylmethyl]-amino}-phenyl)-butan-1-one] |
| 1000 to 10000 | O=C1CCc2cc(NCc3c[nH]nc3-c3ccc(C(F)(F)F)cc3)ccc21 [Example 81, 5-{[3-(4-Trifluoromethylphenyl)-1H-pyrazol-4-ylmethyl]-amino}-indan-1-one] |

| SMILES | EC50 [nM] |
| --- | --- |
| CCCC(=O)c1ccc(OCCCCOc2cccnc2)cc1 [Example 423, 1-{4-[4-(Pyridin-3-yloxy)-butoxy]-phenyl}-butan-1-one] | 1000 to 10000 |

Source: patent publication US9242933B2 (AbbVie Deutschland GmbH & Co. KG, priority 2007, dated 2016)
